Laboratory results as given in patent publication US20120219615A1, “Therapeutic Use of a TLR Agonist and Combination Therapy” (The Trustees of the University of Pennsylvania, priority 2010, published 2012).

Columns and labels:
Format in all cases: cell-based
[1] = target: T1, TLR8 (Homo sapiens, UniProt Q9NR97); assay: TNFα production in PBMCs (marker of TLR8 activation)
T1 construct: assessed in peripheral blood mononuclear cells (PBMCs) from 15 healthy donors; endogenous in cells; host or cells: PBMCs from 15 healthy donors
T1 sequence (Q9NR97 27-1041): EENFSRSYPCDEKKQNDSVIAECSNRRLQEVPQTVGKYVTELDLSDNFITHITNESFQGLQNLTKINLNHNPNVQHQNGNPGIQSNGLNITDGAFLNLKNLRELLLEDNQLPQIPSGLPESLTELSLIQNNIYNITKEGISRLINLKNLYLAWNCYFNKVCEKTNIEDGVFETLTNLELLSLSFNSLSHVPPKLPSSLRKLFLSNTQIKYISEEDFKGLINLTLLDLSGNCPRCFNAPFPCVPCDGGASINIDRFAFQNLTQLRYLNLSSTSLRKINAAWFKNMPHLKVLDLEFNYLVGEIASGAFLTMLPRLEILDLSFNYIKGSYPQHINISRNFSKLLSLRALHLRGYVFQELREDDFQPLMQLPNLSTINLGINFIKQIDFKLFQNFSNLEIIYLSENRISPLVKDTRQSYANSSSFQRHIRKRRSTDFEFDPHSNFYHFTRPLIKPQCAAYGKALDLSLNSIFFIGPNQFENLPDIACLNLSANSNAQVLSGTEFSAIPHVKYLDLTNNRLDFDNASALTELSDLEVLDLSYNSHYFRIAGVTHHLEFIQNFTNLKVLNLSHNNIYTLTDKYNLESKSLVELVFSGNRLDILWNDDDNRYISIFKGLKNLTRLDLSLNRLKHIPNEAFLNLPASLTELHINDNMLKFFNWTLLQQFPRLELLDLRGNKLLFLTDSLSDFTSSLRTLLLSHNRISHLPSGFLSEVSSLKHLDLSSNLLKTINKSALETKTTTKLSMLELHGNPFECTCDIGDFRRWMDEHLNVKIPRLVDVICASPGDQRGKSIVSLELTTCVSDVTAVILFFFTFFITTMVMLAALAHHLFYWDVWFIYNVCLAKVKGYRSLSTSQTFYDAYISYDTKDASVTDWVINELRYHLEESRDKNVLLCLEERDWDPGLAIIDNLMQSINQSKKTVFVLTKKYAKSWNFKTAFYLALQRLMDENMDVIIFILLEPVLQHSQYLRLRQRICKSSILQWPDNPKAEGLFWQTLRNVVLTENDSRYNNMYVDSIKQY
Procedure: (§1) The half-maximal effective concentration (EC50) for VTX-2337 activation of TLR8 and TLR7 was assessed in peripheral blood mononuclear cells (PBMCs) from 15 healthy donors and also in HEK293 cells transfected with TLR8 or TLR7 and an NF-κB driven reporter gene. […] Also it was observed that VTX-2337 had no activity on TLR2, TLR3, TLR4, TLR5, TLR6, or TLR9 at concentrations up to 25 μM.

[2] = target: T2, TLR7 (Homo sapiens, UniProt Q9NYK1); assay: IFNα production in PBMCs (marker of TLR7 activation); settings: PBMCs from 15 healthy donors
T2 construct: expressed in transfected cells; host or cells: HEK293
T2 sequence (Q9NYK1 27-1049): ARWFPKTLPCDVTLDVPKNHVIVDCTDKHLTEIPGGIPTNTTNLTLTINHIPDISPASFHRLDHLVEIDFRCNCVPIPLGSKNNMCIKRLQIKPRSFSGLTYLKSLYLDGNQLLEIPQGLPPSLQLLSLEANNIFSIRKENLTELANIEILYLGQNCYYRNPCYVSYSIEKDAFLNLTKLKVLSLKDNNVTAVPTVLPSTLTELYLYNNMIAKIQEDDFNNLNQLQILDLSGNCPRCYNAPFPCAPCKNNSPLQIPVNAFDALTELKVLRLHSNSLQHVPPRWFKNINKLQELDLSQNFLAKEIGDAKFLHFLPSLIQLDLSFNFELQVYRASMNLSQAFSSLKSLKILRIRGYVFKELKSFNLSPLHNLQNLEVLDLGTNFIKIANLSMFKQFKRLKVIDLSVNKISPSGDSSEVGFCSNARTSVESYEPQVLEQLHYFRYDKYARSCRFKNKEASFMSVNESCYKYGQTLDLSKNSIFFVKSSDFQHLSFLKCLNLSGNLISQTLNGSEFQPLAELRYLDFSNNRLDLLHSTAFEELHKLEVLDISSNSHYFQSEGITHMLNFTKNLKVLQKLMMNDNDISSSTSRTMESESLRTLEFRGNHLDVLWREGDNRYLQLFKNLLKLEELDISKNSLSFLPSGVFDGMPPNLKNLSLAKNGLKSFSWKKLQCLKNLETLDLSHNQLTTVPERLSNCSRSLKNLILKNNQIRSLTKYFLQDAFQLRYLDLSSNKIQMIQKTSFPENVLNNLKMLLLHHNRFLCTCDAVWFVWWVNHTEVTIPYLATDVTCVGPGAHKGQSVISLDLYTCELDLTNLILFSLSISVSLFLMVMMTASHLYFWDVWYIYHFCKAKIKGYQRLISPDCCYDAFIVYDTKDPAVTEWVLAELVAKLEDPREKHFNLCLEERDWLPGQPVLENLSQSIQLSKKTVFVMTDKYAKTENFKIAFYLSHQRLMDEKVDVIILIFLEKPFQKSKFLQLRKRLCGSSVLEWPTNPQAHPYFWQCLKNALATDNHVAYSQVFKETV
Procedure: as §1

[3] = target: T1, TLR8; assay: HEK293 cells transfected with TLR8 and NF-κB driven reporter gene; settings: HEK293 transfectants
Procedure: as §1

[4] = target: T2, TLR7; assay: HEK293 cells transfected with TLR7 and NF-κB driven reporter gene; settings: HEK293 transfectants
Procedure: as §1

[5] = target: TLR2 (Homo sapiens, UniProt O60603); assay: Activity on TLR2; settings: concentrations up to 25 μM
Procedure: as §1

[6] = target: TLR4 (Homo sapiens, UniProt O00206+Q9Y6Y9); assay: Activity on TLR4; settings: concentrations up to 25 μM
Procedure: as §1

[7] = target: TLR5 (Homo sapiens, UniProt O60602); assay: Activity on TLR5; settings: concentrations up to 25 μM
Procedure: as §1

Sequence of TLR4 (O00206 24-839, species assumed): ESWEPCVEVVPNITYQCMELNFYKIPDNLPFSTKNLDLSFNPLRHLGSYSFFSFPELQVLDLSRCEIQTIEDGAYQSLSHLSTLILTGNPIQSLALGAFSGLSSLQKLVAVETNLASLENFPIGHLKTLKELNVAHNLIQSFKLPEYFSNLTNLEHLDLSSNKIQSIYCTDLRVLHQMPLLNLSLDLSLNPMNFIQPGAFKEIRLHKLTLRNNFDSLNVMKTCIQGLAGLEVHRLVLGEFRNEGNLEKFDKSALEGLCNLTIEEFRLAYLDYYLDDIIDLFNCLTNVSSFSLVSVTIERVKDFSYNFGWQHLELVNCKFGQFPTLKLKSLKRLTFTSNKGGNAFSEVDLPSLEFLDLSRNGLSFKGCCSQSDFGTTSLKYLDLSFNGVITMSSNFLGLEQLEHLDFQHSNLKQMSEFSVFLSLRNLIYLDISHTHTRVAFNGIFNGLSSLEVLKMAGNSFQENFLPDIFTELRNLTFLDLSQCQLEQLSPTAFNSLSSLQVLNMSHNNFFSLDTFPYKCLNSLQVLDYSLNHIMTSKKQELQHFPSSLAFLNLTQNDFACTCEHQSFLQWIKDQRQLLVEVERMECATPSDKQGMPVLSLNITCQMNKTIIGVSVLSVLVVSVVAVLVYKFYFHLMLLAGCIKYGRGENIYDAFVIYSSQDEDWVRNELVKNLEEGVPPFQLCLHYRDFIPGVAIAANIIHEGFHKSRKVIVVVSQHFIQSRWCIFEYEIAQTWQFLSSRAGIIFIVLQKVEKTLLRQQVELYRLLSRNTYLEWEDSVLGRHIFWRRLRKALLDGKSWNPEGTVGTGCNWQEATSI
Sequence of TLR4 (Q9Y6Y9 17-160 limits assumed, species assumed): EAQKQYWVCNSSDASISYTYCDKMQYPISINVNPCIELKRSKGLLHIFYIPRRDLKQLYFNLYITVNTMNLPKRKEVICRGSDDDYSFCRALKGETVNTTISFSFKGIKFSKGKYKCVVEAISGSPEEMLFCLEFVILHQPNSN
Sequence of TLR2 (O60603 21-784, species assumed): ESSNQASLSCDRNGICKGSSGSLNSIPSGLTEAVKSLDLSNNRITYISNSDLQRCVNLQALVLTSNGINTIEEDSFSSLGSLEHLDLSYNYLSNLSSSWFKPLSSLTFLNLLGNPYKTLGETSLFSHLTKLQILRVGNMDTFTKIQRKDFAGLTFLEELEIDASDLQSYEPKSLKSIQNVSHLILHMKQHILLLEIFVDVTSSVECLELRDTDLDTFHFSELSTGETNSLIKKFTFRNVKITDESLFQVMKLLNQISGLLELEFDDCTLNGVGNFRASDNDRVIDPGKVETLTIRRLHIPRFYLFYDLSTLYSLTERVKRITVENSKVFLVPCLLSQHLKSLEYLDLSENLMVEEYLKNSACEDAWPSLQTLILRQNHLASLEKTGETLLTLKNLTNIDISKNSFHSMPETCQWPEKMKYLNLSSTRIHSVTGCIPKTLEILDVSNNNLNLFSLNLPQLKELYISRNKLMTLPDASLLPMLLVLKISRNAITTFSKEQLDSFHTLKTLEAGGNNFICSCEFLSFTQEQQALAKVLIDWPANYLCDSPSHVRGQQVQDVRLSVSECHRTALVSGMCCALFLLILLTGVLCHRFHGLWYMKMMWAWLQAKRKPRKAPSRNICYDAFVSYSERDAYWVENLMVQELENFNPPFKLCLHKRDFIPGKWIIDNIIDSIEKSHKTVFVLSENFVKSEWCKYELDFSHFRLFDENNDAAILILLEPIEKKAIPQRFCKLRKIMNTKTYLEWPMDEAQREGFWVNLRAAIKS
Sequence of TLR5 (O60602 21-858, species assumed): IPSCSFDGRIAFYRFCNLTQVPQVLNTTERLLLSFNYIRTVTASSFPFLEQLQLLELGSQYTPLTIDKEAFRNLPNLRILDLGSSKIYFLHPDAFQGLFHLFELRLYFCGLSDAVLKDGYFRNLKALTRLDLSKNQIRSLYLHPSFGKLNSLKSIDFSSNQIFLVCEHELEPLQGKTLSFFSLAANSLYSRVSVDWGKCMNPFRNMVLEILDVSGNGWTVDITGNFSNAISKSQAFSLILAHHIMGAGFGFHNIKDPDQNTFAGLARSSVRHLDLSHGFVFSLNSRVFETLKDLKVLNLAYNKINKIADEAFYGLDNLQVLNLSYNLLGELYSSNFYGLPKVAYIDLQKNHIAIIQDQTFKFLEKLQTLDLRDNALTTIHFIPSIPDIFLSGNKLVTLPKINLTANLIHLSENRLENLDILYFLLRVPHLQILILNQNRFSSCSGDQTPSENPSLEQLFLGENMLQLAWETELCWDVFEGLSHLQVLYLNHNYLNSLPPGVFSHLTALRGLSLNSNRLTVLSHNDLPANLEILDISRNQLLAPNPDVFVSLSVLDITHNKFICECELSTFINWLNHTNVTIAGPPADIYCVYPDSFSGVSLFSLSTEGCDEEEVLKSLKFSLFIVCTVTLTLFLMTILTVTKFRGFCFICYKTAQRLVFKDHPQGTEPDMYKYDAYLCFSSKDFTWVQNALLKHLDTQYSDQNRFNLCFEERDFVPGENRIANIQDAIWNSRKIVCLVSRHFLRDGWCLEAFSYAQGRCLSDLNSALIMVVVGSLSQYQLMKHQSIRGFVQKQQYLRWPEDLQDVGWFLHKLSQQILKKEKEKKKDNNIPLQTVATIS

SMILES: CCCN(CCC)C(=O)C1=Cc2ccc(-c3ccc(C(=O)N4CCCC4)cc3)cc2N=C(N)C1 [VTX-2337, 2-amino-N,N-dipropyl-8-(4-(pyrrolidine-1-carbonyl)phenyl)-3H-benzo[b]azepine-4-carboxamide]
- EC50 ([1]; PBMCs from 15 healthy donors): 74 nM
- selectivity for TLR8 relative to TLR7 ([1]; PBMCs, TNFα vs IFNα EC50): > 45 fold
- EC50 [2]: > 3330 nM
- EC50 [3]: 70 nM
- EC50 [4]: 2000 nM
- activity on TLR2 [5]: no activity
- activity on TLR4 [6]: no activity
- activity on TLR5 [7]: no activity
